Laboratory results taken from patent publication US7728128B2, “Dibenzo[c,h][1,5]naphthyridines and their use as DNA probes” (Institut National de la Sante et de la Recherche Medicate …, priority 2006, dated 2010).

Key:
stability in DMSO = format: physicochemical
Description: Stability of compound I: When stored in the dark in anhydrous DMSO at −25° C., compound I is stable for periods up to 3 years (LC-MS).

live mouse fibroblasts = experiment: photoactivation of nuclear fluorescence in live cells (time-lapse video microscopy); format: cell-based; details: 5 μM, continuous illumination, Alexa488/FITC filter
Description: Compound I at 5 μM was added directly into the cell medium 10 min before observation in an inverted microscope Zeiss Axiovert 200M with a 100 W mercury lamp. Time lapse images were acquired using CoolSnap HQ (Photometrics, Inc.) black and white camera driven by the Metamorph software (Universal Imaging). All experiments were carried out using 40× or 63× (FIGS. 1C and D) oil immersion Apochromat Zeiss objectives. To measure the fluorescence intensities, an oval region was drawn inside of each nucleus using Metamorph software and integrated intensities (nuclear surface multiplied by the average pixel value) were logged for each image.
To quantify this effect, live mouse fibroblasts were incubated in the presence of 5 μM compound I and time-lapse video microscopy was used to film the cells. Nuclear fluorescence develops slowly in the nuclei of cells treated with compound I and illuminated continuously using a standard Alexa488/FITC filter set (475AF40, 535AF45) (FIG. 5A). Fluorescence peaked after 8 min of illumination and then started to fade (FIG. 5C), most likely reflecting the “bleaching” of compound I. The photoactivation concerned only the cells in the illuminated field, as nuclei of cells immediately outside of the illuminated field remained imperceptible (non-fluorescent). […]

CT DNA = experiment: viscometry (hydrodynamic studies) of CT DNA solutions; format: binding, calf
Description: Calf thymus (CT) DNA was dissolved in 50 mM Na-phosphate buffer, pH 7.2, to a concentration of 0.1 or 0.5 mM relative to base pairs as described in the legend for FIGS. 3A and B. DNA solution was allowed to run through a custom-made capillary viscometer and the time necessary for the meniscus to pass a certain distance was measured using a stopwatch. All experiments were performed at 23° C. Viscosity values were calculated using the equation: η=(t−t0)/t0, where t is the flow time of DNA solution (with or without dye), and t0 is the flow time of Na-phosphate buffer alone. For each control and DNA solutions with dyes flow times were measured three to five times. Viscosity of DNA solutions with dyes were calculated as (η/η0)^1/3, where η0 and η are relative viscosities of the CT DNA solution in the absence and presence of the dye, respectively. This calculation stems from the relationship which exists between the relative solution viscosity and the relative contour length (L/L0): L/L0=(η/η0)^1/3, where L stands for the apparent molecular length (Muller, W. et al., 1968, J Mol Biol, 35, 251-290). Average viscosity values and standard error of the mean (SEM) were determined using (η/η0)^1/3 values calculated for each time flow measurement.
DNA-binding dyes interact with dsDNA by intercalation or external binding, or both. External binding most often involves the minor groove of DNA (Kopka et al.; Pjura, P. E., et al., 1987, J Mol Biol, 197, 257-271). Intercalation occurs when a ligand inserts itself between the opposite strands of DNA. In order to determine the mechanism of compound I binding to dsDNA, the inventors performed hydrodynamic studies. This approach is based on the observation that intercalating molecules increase the length of DNA fragments and, consequently, enhance the viscosity of DNA solutions (Muller W. et al.; Suh, D. et al., 1995, Bioorg Med Chem, 3, 723-728). For this experiment, compound I has been compared to the known DNA intercalator ethidium bromide and to the external minor groove binder Hoechst 33258. CT DNA at 0.5 mM was mixed with drugs at 0.1 mM concentration (0.2 dye/bp ratio) and used for viscometry measurements.
The inventors then wondered whether the increase in viscosity is equally matched by the increase in fluorescence intensity. To answer this question, CT DNA at 0.1 mM (bp) was mixed with increasing amounts of compound I and viscosity measurements were performed as above. The viscosity of the DNA/compound I solutions increased up to a dye/bp ratio 1 (FIG. 3B). To correlate the increase in viscosity with fluorescence, the inventors measured fluorescence intensities at 484 nm of the compound I/DNA solutions used for the viscosity measurements.

- stability, period stable (stability in DMSO; DMSO at 4° C. in the dark): stable for at least one year
- stability, period stable (stability in DMSO; DMSO solution, ambient temperature, dark): at least 48 hours
- stability, period stable (stability in DMSO; anhydrous DMSO at −25° C., dark (LC-MS)): up to 3 years
Structure (SMILES): COc1ccc2c(c1)c(C)nc1c3ccc(OC)cc3c(NCCCN(C)C)nc21 [Compound I, N′-(2,8-dimethoxy-12-methyl-dibenzo[c,h][1,5]naphthyridin-6-yl)-N,N-dimethyl-propane-1,3-diamine]
- illumination time to peak/plateau of nuclear fluorescence (live mouse fibroblasts): 8 min
- dye/bp ratio up to which viscosity increased (CT DNA; CT DNA 0.1 mM (bp)): ≤ 1
- dye/bp ratio of maximal fluorescence intensity (CT DNA; CT DNA 0.1 mM (bp), 484 nm): 0.2
- effect on viscosity of DNA solution (CT DNA; CT DNA 0.5 mM, drug 0.1 mM (0.2 dye/bp ratio)): increasing the viscosity of the DNA solution
